Measured values as given in patent publication US20160355483A1, “COMPOUND BINDING TO PPARG BUT NOT ACTING AS PROMOTER AND PHARMACEUTICAL COMPOSITION FOR TREATING PPARG-RELATED DISEASES CONTAINING SAME AS ACTIVE INGREDIENT” (Hyundai Pharm Co., Ltd., priority 2014, published 2016).

Target: T1, PPARG (peroxisome proliferator activated receptor-gamma), GST-PPARG-LBD (Homo sapiens, UniProt P37231)
T1 construct: 15 μL of 5 nM GST-PPARG-LBD and 5 nM Tb-GST-antibody were added; purchased Invitrogen PV4894
T1 sequence (P37231 238-503 limits assumed): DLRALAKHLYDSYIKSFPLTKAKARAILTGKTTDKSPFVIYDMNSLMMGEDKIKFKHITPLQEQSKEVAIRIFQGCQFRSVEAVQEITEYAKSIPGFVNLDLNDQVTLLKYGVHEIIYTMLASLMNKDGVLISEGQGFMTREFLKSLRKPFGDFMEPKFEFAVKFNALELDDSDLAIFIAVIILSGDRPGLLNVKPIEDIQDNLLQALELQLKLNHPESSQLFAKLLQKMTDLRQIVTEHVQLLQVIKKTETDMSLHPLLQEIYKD
Assay: LanthaScreen TR-FRET PPARG Competitive Binding Assay
Set-up: key: “+” indicates the degree of the binding activity, and as the number of “+” increases, the binding activity is stronger; ++: “+” indicates the degree of the binding activity, and as the number of “+” increases, the binding activity is stronger; +++: “+” indicates the degree of the binding activity, and as the number of “+” increases, the binding activity is stronger; ++++: “+” indicates the degree of the binding activity, and as the number of “+” increases, the binding activity is stronger
Settings: degree of binding activity
In short: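 Ratio of 518 nm to 488 nm time-resolved emission after a 1 h room-temperature incubation, in competition format with GST-PPARG ligand-binding domain. Values are expressed as 100% minus compound-to-vehicle ratio and related to rosiglitazone binding.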

Row | Binding assay (1 μLM) | Structure (SMILES)
1 | ++++ | C[C@H](NC(=O)c1ccc2c(c1)CCCN2Cc1cccc(-c2ccccc2C(=O)O)c1)c1ccc2ccccc2c1 [Example 120, (S)-3′-((6-((1-(naphthalene-2-yl)ethyl)carbamoyl)-3,4-dihydroquinoline-1(2H)-yl)methyl)-[1,1′-biphenyl]-2-carboxylic acid]
2 | +++ | Cc1ccc([C@H](C)NC(=O)c2ccc3c(c2)CCCN3Cc2cccc(-c3ccccc3C(=O)O)c2)cc1F [Example 121, (S)-3′-((6-((1-(3-fluoro-4-methylphenyl)ethyl)carbamoyl)-3,4-dihydroquinoline-1(2H)-yl)methyl)-[1,1′-biphenyl]-2-carboxylic acid]
3 | ++ | C[C@H](NC(=O)c1ccc2c(c1)CCCN2Cc1cccc(-c2ccccc2C(N)=O)c1)c1ccc(C#N)cc1 [Example 122, (S)-1-((2′-carbamoyl-[1,1′-biphenyl]-3-yl)methyl)-N-(1-(4-cyanophenyl)ethyl)-1,2,3,4-tetrahydroquinoline-6-carboxamide]
4 | ++++ | C[C@H](NC(=O)c1ccc2c(c1)CCCN2Cc1cccc(-c2ccccc2C(N)=O)c1)c1ccc2ccccc2c1 [Example 124, (S)-1-((2′-carbamoyl-[1,1′-biphenyl]-3-yl)methyl)-N-(1-(naphthalene-2-yl)ethyl)-1,2,3,4-tetrahydroquinoline-6-carboxamide]
5 | +++ | Cc1ccc([C@H](C)NC(=O)c2ccc3c(c2)CCCN3Cc2cccc(-c3ccccc3C(N)=O)c2)cc1F [Example 125, (S)-1-((2′-carbamoyl-[1,1′-biphenyl]-3-yl)methyl)-N-(1-(3-fluoro-4-methylphenyl)ethyl)-1,2,3,4-tetrahydroquinoline-6-carboxamide]
6 | +++ | C[C@H](NC(=O)c1ccc2c(c1)CCCN2Cc1cccc(-c2ccccc2C(=O)O)c1F)c1ccccc1 [Example 126, (S)-2′-fluoro-3′-((6-((1-phenylethyl)carbamoyl)-3,4-dihydroquinoline-1(2H)-yl)methyl)-[1,1′-biphenyl]-2-carboxylic acid]
7 | +++ | C[C@H](NC(=O)c1ccc2c(c1)CCCN2Cc1cccc(-c2ccccc2C(N)=O)c1F)c1ccccc1 [Example 127, (S)-1-((2′-carbamoyl-2-fluoro-[1,1′-biphenyl]-3-yl)methyl)-N-(1-phenylethyl)-1,2,3,4-tetrahydroquinoline-6-carboxamide]
8 | ++ | C[C@H](NC(=O)c1ccc2c(c1)CCCN2Cc1cccc(-c2ccccc2C(=O)O)c1F)c1ccc([N+](=O)[O-])cc1 [Example 128, (S)-2′-fluoro-3′-((6-((1-(4-nitrophenyl)ethyl)carbamoyl)-3,4-dihydroquinoline-1(2H)-yl)methyl)-[1,1′-biphenyl]-2-caboxylic acid]
9 | ++++ | C[C@H](NC(=O)c1ccc2c(c1)CCCN2Cc1cccc(-c2ccccc2C(=O)O)c1F)c1ccc2ccccc2c1 [Example 129, (S)-2′-fluoro-3′-((6-((1-(naphthalene-2-yl)ethyl)carbamoyl)-3,4-dihydroquinoline-1(28)-yl)methyl)-[1,1′-biphenyl]-2-carboxylic acid]
10 | +++ | Cc1ccc([C@H](C)NC(=O)c2ccc3c(c2)CCCN3Cc2cccc(-c3ccccc3C(=O)O)c2F)cc1F [Example 130, (S)-2′-fluoro-3′-((6-((1-(3-fluoro-4-methylphenyl)ethyl)carbamoyl)-3,4-dihydroquinoline-1(2H)-yl)methyl)-[1,1′-biphenyl]-2-caboxylic acid]
11 | ++++ | C[C@H](NC(=O)c1ccc2c(c1)CCCN2Cc1cccc(-c2ccccc2C(N)=O)c1F)c1ccc2ccccc2c1 [Example 132, (S)-1-((2′-carbamoyl-2-fluoro-[1,1′-biphenyl]-3-yl)methyl)-N-(1-(naphthalene-2-yl)ethyl)-1,2,3,4-tetrahydroquinoline-6-carboxamide]
12 | +++ | Cc1ccc([C@H](C)NC(=O)c2ccc3c(c2)CCCN3Cc2cccc(-c3ccccc3C(N)=O)c2F)cc1F [Example 133, (S)-1-((2′-carbamoyl-2-fluoro-[1,1′-biphenyl]-3-yl)methyl)-N-(1-(3-fluoro-4-methylphenyl)ethyl)-1,2,3,4-tetrahydroquinoline-6-carboxamide]
13 | ++++ | C[C@H](NC(=O)c1ccc2c(c1)CCCN2Cc1cc(-c2ccccc2C(=O)O)ccc1F)c1ccccc1 [Example 134, (S)-4′-fluoro-3′-((6-((1-phenylethyl)carbamoyl)-3,4-dihydroquinoline-1(2H)-yl)methyl)-[1,1′-biphenyl]-2-carboxylic acid]
14 | +++ | C[C@H](NC(=O)c1ccc2c(c1)CCCN2Cc1cc(-c2ccccc2C(N)=O)ccc1F)c1ccccc1 [Example 135, (S)-1-((2′-carbamoyl-4-fluoro-[1,1′-biphenyl]-3-yl)methyl)-N-(1-phenylethyl)-1,2,3,4-tetrahydroquinoline-6-carboxamide]
15 | +++ | C[C@H](NC(=O)c1ccc2c(c1)CCCN2Cc1cc(-c2ccccc2C(=O)O)ccc1F)c1ccc([N+](=O)[O-])cc1 [Example 136, (S)-4′-fluoro-3′-((6-((1-(4-nitrophenyl)ethyl)carbamoyl)-3,4-dihydroquinoline-1(2H)-yl)methyl)-[1,1′-biphenyl]-2-caboxylic acid]
16 | ++++ | C[C@H](NC(=O)c1ccc2c(c1)CCCN2Cc1cc(-c2ccccc2C(=O)O)ccc1F)c1ccc2ccccc2c1 [Example 137, (S)-4′-fluoro-3′-((6-((1-(naphthalene-2-yl)ethyl)carbamoyl)-3,4-dihydroquinoline-1(2)-yl)methyl)-[1,1′-biphenyl]-2-carboxylic acid]
17 | ++++ | Cc1ccc([C@H](C)NC(=O)c2ccc3c(c2)CCCN3Cc2cc(-c3ccccc3C(=O)O)ccc2F)cc1F [Example 138, (S)-4′-fluoro-3′-((6-((1-(3-fluoro-4-methylphenyl)ethyl)carbamoyl)-3,4-dihydroquinoline-1(2H)-yl)methyl)-[1,1′-biphenyl]-2-caboxylic acid]
18 | ++++ | C[C@H](NC(=O)c1ccc2c(c1)CCCN2Cc1cc(-c2ccccc2C(N)=O)ccc1F)c1ccc2ccccc2c1 [Example 140, (S)-1-((2′-carbamoyl-4-fluoro-[1,1′-biphenyl]-3-yl)methyl)-N-(1-(naphthalene-2-yl)ethyl)-1,2,3,4-tetrahydroquinoline-6-carboxamide]
19 | +++ | Cc1ccc([C@H](C)NC(=O)c2ccc3c(c2)CCCN3Cc2cc(-c3ccccc3C(N)=O)ccc2F)cc1F [Example 141, (S)-1-((2′-carbamoyl-4-fluoro-[1,1′-biphenyl]-3-yl)methyl)-N-(1-(3-fluoro-4-methylphenyl)ethyl)-1,2,3,4-tetrahydroquinoline-6-carboxamide]
20 | ++ | C[C@H](NC(=O)c1ccc2c(c1)OCCN2Cc1ccccc1-c1ccc(C(=O)O)cc1)c1ccccc1 [Example 142, (S)-2′-((7-((1-phenylethyl)carbamoyl)-2H-benzo[b][1,4]oxazine-4(3H)-yl)methyl)-[1,1′-biphenyl]-4-carboxylic acid]
21 | ++ | C[C@H](NC(=O)c1ccc2c(c1)OCCN2Cc1ccccc1-c1ccc(C(N)=O)cc1)c1ccccc1 [Example 143, (S)-4-((4′-carbamoyl-[1,1′-biphenyl]-2-yl)methyl)-N-(1-phenylethyl)-3,4-dihydro-2H-benzo[b][1,4]oxazine-7-carboxamide]
22 | + | C[C@H](NC(=O)c1ccc2c(c1)OCCN2Cc1ccccc1-c1ccc(C(=O)O)cc1)c1ccc(C#N)cc1 [Example 144, (S)-2′-((7-((1-(4-cyanophenyl)ethyl)carbamoyl)-2H-benzo[b][1,4]oxazine-4(3H)-yl)methyl)-[1,1′-biphenyl]-4-carboxylic acid]
23 | ++ | Cc1ccc([C@H](C)NC(=O)c2ccc3c(c2)OCCN3Cc2ccccc2-c2ccc(C(=O)O)cc2)cc1F [Example 145, (S)-2′-((7-((1-(3-fluoro-4-methylphenyl)ethyl)carbamoyl)-2H-benzo[b][1,4]oxazine-4(3H)-yl)methyl)-[1,1′-biphenyl]-4-carboxylic acid]
24 | + | C[C@H](NC(=O)c1ccc2c(c1)OCCN2Cc1ccccc1-c1ccc(C(=O)O)cc1)c1ccc([N+](=O)[O-])cc1 [Example 146, (S)-2′-((7-((1-(4-nitrophenyl)ethyl)carbamoyl)-2H-benzo[b][1,4]oxazine-4 (3H)-yl)methyl)-[1,1′-biphenyl]-4-carboxylic acid]
25 | +++ | C[C@H](NC(=O)c1ccc2c(c1)OCCN2Cc1ccccc1-c1ccc(C(=O)O)cc1)c1ccc2ccccc2c1 [Example 147, (S)-2′-((7-((1-(naphthalene-2-yl)ethyl)carbamoyl)-2H-benzo[b][1,4]oxazine-4(3H)-yl)methyl)-[1,1′-biphenyl]-4-carboxylic acid]
26 | ++ | Cc1ccc([C@H](C)NC(=O)c2ccc3c(c2)OCCN3Cc2ccccc2-c2ccc(C(N)=O)cc2)cc1F [Example 148, (S)-4-((4′-carbamoyl-[1,1′-biphenyl]-2-yl)methyl)-N-(1-(3-fluoro-4-methylphenyl)ethyl)-3,4-dihydro-2H-benzo[b][1,4]oxazine-7-carboxamide]
